Test results as given in ChEMBL document CHEMBL1155645, “Microbial transformations of the antimelanoma agent betulinic acid” (2000).
Converted amounts (≈) assume the structure as drawn.

What was measured:
[1] = Cytotoxicity against human Mel2 cells; type: functional; conditions: read-out: ED50 (the source's name)
[2] = Cytotoxicity against human Mel1 cells; type: functional; conditions: read-out: ED50 (the source's name)

SMILES | EC50 [1] | EC50 [2]
C=C(C)[C@@H]1CC[C@]2(C(=O)O)CC[C@]3(C)[C@H](CC[C@@H]4[C@@]5(C)CC[C@H](O)C(C)(C)[C@@H]5C[C@H](O)[C@]43C)[C@@H]12 | 7.2 µg/mL (≈ 15.2 µM) | 17.1 µg/mL (≈ 36.2 µM)
C=C(C)[C@@H]1CC[C@]2(C(=O)O)CC[C@]3(C)[C@H](CC[C@@H]4[C@@]5(C)CC[C@H](O)C(C)(C)[C@@H]5[C@@H](O)[C@H](O)[C@]43C)[C@@H]12 | 16.8 µg/mL (≈ 34.4 µM) | 10.9 µg/mL (≈ 22.3 µM)
C=C(C)[C@@H]1CC[C@]2(C(=O)O)CC[C@]3(C)[C@H](CC[C@@H]4[C@@]5(C)[C@H](O)C[C@H](O)C(C)(C)[C@@H]5C[C@H](O)[C@]43C)[C@@H]12 | > 20 µg/mL | > 20 µg/mL
C=C(C)[C@@H]1CC[C@]2(C(=O)O)CC[C@]3(C)[C@H](CC[C@@H]4[C@@]5(C)CC[C@H](O)C(C)(C)[C@@H]5CC[C@]43C)[C@@H]12 [BETULINIC ACID] | 1 µg/mL (≈ 2.19 µM) | 3.3 µg/mL (≈ 7.23 µM)
C=C(C)[C@@H]1CC[C@]2(C(=O)O)CC[C@]3(C)[C@H](CC[C@@H]4[C@@]5(C)CCC(=O)C(C)(C)[C@@H]5CC[C@]43C)[C@@H]12 [BETUNOLIC ACID] | 0.1 µg/mL (≈ 0.22 µM) | 16 µg/mL (≈ 35.2 µM)
